Laboratory results published in PubChem BioAssay AID588782 (Southern Research Specialized Biocontainment Screening …, 2011).
The source made the active and inactive calls.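 Rule for the calls: active = virus-caused cell damage raised over twofold versus untreated cells in three repeats, without toxicity at overlapping doses; inactive = the rest.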

Tested on: PC3 cells, HSV G47-delta CPE, CellTiter-Glo, 96 h
Test: augmentation of HSV G47-delta CPE in PC3 cells – cell-based, CellTiter-Glo, secondary, confirmation (AID 588782);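 for CPE increase: percent rise in virus-caused cell damage over infected cultures given no drug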
Conditions: for CC50: measured here: PC3 cytotoxicity

Compound | outcome (at 10 µM) | CC50 [µM] | CPE increase (at 10 µM, stronger effect = higher value)
NCCCN1CCCN(CCCN)CC1 | inactive | > 100 | –
COc1cc(C(=O)OCCCN(C)CCN(C)CCCOC(=O)c2cc(OC)c(OC)c(OC)c2)cc(OC)c1OC | inactive | > 100 | –
COc1ccc(C(=O)OCCN2CCN(C)CC2)cc1 | inactive | > 100 | –
COc1cc(C(=O)N2CCCN(C(=O)c3cc(OC)c(OC)c(OC)c3)CC2)cc(OC)c1OC | inactive | > 100 | –
COc1cc(C(=O)OCCCN2CCOCC2)cc(OC)c1OC | inactive | > 100 | –
O=C(CNc1ccc(F)cc1)CN1CCCN(CC(=O)Nc2ccc(F)cc2)CC1 | inactive | > 100 | –
CNCCN(C)CCOC(=O)c1cc(OC)c(OC)c(OC)c1 | inactive | > 100 | –
COc1cc(C(=O)OCCN2CCCN(CCOC(=O)c3cc(OC)c(OC)c(OC)c3)CC2)cc(OC)c1OC | inactive | > 100 | –
COc1cc(OC)cc(C(=O)OCCCN2CCCN(Cc3ccccc3)CC2)c1 | inactive | > 100 | –
COc1cccc(C(=O)NCCCN2CCN(CCCNC(=O)c3cccc(OC)c3)CC2)c1 | inactive | > 100 | –
COc1ccc(C(=O)OCCCN2CCCC2)cc1 | inactive | > 100 | –
COc1cc(OC)cc(C(=O)OCCN2CCCC2)c1 | inactive | > 100 | –
O=C(OCCCN1CCCN(CCCOC(=O)c2ccccc2)CC1)c1ccccc1 | inactive | > 100 | –
COc1cc(OC)cc(C(=O)OCCCN2CCCN(C)CC2)c1 | inactive | > 100 | –
O=C(OCCCN1CCOCC1)c1ccc(F)cc1 | inactive | > 100 | –
CN1CCCN(CCCOC(=O)c2ccc(F)cc2)CC1 | inactive | > 100 | –
COc1cc(C(=O)OCCCN2CCCN(Cc3ccccc3)CC2)cc(OC)c1OC | inactive | > 100 | –
COc1cc(C(=O)OCCCN2CCCN(C(=O)OC(C)(C)C)CC2)cc(OC)c1OC | inactive | > 100 | –
COc1cc(OC)cc(C(=O)OCCN2CCCN(CCOC(=O)c3cc(OC)cc(OC)c3)CC2)c1 | inactive | > 100 | –

Compound | outcome (at 10 µM) | CC50 [µM] | CPE increase (at 10 µM, stronger effect = higher value)
COc1cc(C(=O)OCCN2CCCN(C)CC2)cc(OC)c1OC | inactive | > 100 | –
COc1cc(C(=O)OCCCN2CCCNCC2)cc(OC)c1OC | inactive | > 100 | –
CNCCN(C)CCCOC(=O)c1ccc(F)cc1 | inactive | > 100 | –
COc1cc(C(=O)OCCCN2CCCC2)cc(OC)c1OC | inactive | > 100 | –
COc1ccc(C(=O)OCCCN2CCN(CCCOC(=O)c3ccc(OC)cc3)CC2)cc1 | inactive | > 100 | –
O=C(OCCCN1CCN(CCCOC(=O)c2ccc(F)cc2)CC1)c1ccc(F)cc1 | inactive | > 100 | –
COc1ccc(C(=O)OCCCN2CCOCC2)cc1 | – | > 100 | 16.9% (inactive)
COc1cc(C(=O)OCCCN2CCN(C)CC2)cc(OC)c1OC | inactive | > 100 | –
COc1cc(C(=O)OCCCN2CCCN(C(C)=O)CC2)cc(OC)c1OC | inactive | > 100 | –
COc1cc(C(=O)OCCN2CCN(C)CC2)cc(OC)c1OC | inactive | > 100 | –
COc1cc(OC)cc(C(=O)OCCN2CCN(CCOC(=O)c3cc(OC)cc(OC)c3)CC2)c1 | inactive | > 100 | –
COc1cc(C(=O)OCCCN2CCCN(CCCOC(=O)c3cc(OC)c(OC)c(OC)c3)CC2)cc(OC)c1OC | inactive | > 100 | –
COc1cc(OC)cc(C(=O)OCCCN2CCN(CCCOC(=O)c3cc(OC)cc(OC)c3)CC2)c1 | inactive | > 94 | –
COc1cc(NC(=O)Nc2cc(OC)c(OC)c(OC)c2)cc(OC)c1OC | inactive | > 100 | –
COc1cc(C(=O)OCCCN2CCCN(C(=O)c3ccccc3)CC2)cc(OC)c1OC | inactive | > 100 | –
COc1ccc(N2C(=O)CC(N3CCCN(C4CC(=O)N(c5ccc(OC)cc5)C4=O)CC3)C2=O)cc1 (centres undefined) | inactive | > 100 | –
COc1cc(CN2CCCN(Cc3cc(OC)c(OC)c(OC)c3)CC2)cc(OC)c1OC | inactive | > 100 | –
COc1cc(OC)cc(C(=O)OCCN2CCCN(C)CC2)c1 | inactive | > 100 | –
